{
  "source": "the supplement of paper PMC10307832",
  "test_in_all_cases": "relative viability (nuclei count vs DMSO), 5 days (fraction); higher = more cells survive",
  "key": {"NCI-H2023": {"tested_on": "NCI-H2023", "procedure,_shortened": "(§1)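 Medians of duplicate plates are given as relative viability. That measure is the nuclei count in treated wells divided by the count in vehicle wells. Counts were taken on 4× images of lung cancer cell lines in 1536-well plates, 5 days after pin-tool dosing the day after seeding with one drug alone or a fixed anchor-drug dose plus five library-drug doses (not always all listed) in √10 steps.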"}, "NCI-H2347": {"tested_on": "NCI-H2347", "procedure,_shortened": "as §1"}, "NCI-H1563": {"tested_on": "NCI-H1563", "procedure,_shortened": "as §1"}, "NCI-H1650": {"tested_on": "NCI-H1650", "procedure,_shortened": "as §1"}, "NCI-H2009": {"tested_on": "NCI-H2009", "procedure,_shortened": "as §1"}, "HOP-62": {"tested_on": "HOP-62", "procedure,_shortened": "as §1"}, "NCI-H2085": {"tested_on": "NCI-H2085", "procedure,_shortened": "as §1"}, "SW 1573": {"tested_on": "SW 1573", "procedure,_shortened": "as §1"}, "SK-LU-1": {"tested_on": "SK-LU-1", "procedure,_shortened": "as §1"}, "NCI-H322M": {"tested_on": "NCI-H322M", "procedure,_shortened": "as §1"}, "NCI-H647": {"tested_on": "NCI-H647", "procedure,_shortened": "as §1"}},
  "data": [
    {"smiles": "C=C1C(=O)O[C@@H](CCCCCCCC)[C@@H]1C(=O)O", "note": "[C-75] + CS(=O)(=O)CCNCc1ccc(-c2ccc3ncnc(Nc4ccc(OCc5cccc(F)c5)c(Cl)c4)c3c2)o1 [Lapatinib] (partner 2 µM)", "values": [
      {"measurement": "relative viability", "setting": "NCI-H2023; first compound 0.08 µM", "result": 0.963},
      {"measurement": "relative viability", "setting": "NCI-H2023; first compound 0.253 µM", "result": 0.956},
      {"measurement": "relative viability", "setting": "NCI-H2023; first compound 0.8 µM", "result": 0.737},
      {"measurement": "relative viability", "setting": "NCI-H2023; first compound 2.53 µM", "result": 0.691},
      {"measurement": "relative viability", "setting": "NCI-H2023; first compound 8 µM", "result": 0.653},
      {"measurement": "relative viability", "setting": "NCI-H2347; first compound 0.08 µM", "result": 0.862},
      {"measurement": "relative viability", "setting": "NCI-H2347; first compound 0.253 µM", "result": 0.94},
      {"measurement": "relative viability", "setting": "NCI-H2347; first compound 0.8 µM", "result": 0.965},
      {"measurement": "relative viability", "setting": "NCI-H2347; first compound 2.53 µM", "result": 0.828},
      {"measurement": "relative viability", "setting": "NCI-H2347; first compound 8 µM", "result": 1.02},
      {"measurement": "relative viability", "setting": "NCI-H1563; first compound 0.08 µM", "result": 0.886},
      {"measurement": "relative viability", "setting": "NCI-H1563; first compound 0.253 µM", "result": 0.979},
      {"measurement": "relative viability", "setting": "NCI-H1563; first compound 0.8 µM", "result": 0.881},
      {"measurement": "relative viability", "setting": "NCI-H1563; first compound 2.53 µM", "result": 0.998},
      {"measurement": "relative viability", "setting": "NCI-H1563; first compound 8 µM", "result": 1},
      {"measurement": "relative viability", "setting": "NCI-H1650; first compound 0.08 µM", "result": 0.844},
      {"measurement": "relative viability", "setting": "NCI-H1650; first compound 0.253 µM", "result": 0.914},
      {"measurement": "relative viability", "setting": "NCI-H1650; first compound 0.8 µM", "result": 0.775},
      {"measurement": "relative viability", "setting": "NCI-H1650; first compound 2.53 µM", "result": 0.963},
      {"measurement": "relative viability", "setting": "NCI-H1650; first compound 8 µM", "result": 1.09},
      {"measurement": "relative viability", "setting": "NCI-H2009; first compound 0.08 µM", "result": 0.984},
      {"measurement": "relative viability", "setting": "NCI-H2009; first compound 0.253 µM", "result": 0.88},
      {"measurement": "relative viability", "setting": "NCI-H2009; first compound 0.8 µM", "result": 0.901},
      {"measurement": "relative viability", "setting": "NCI-H2009; first compound 2.53 µM", "result": 0.939},
      {"measurement": "relative viability", "setting": "NCI-H2009; first compound 8 µM", "result": 0.762},
      {"measurement": "relative viability", "setting": "HOP-62; first compound 0.08 µM", "result": 1.07},
      {"measurement": "relative viability", "setting": "HOP-62; first compound 0.253 µM", "result": 1.09},
      {"measurement": "relative viability", "setting": "HOP-62; first compound 0.8 µM", "result": 0.955},
      {"measurement": "relative viability", "setting": "HOP-62; first compound 2.53 µM", "result": 0.713},
      {"measurement": "relative viability", "setting": "HOP-62; first compound 8 µM", "result": 0.817},
      {"measurement": "relative viability", "setting": "NCI-H2085; first compound 0.08 µM", "result": 0.802},
      {"measurement": "relative viability", "setting": "NCI-H2085; first compound 0.253 µM", "result": 0.867},
      {"measurement": "relative viability", "setting": "NCI-H2085; first compound 0.8 µM", "result": 0.679},
      {"measurement": "relative viability", "setting": "NCI-H2085; first compound 2.53 µM", "result": 0.671},
      {"measurement": "relative viability", "setting": "NCI-H2085; first compound 8 µM", "result": 0.769},
      {"measurement": "relative viability", "setting": "SW 1573; first compound 0.08 µM", "result": 1.14},
      {"measurement": "relative viability", "setting": "SW 1573; first compound 0.253 µM", "result": 1.14},
      {"measurement": "relative viability", "setting": "SW 1573; first compound 0.8 µM", "result": 1.15},
      {"measurement": "relative viability", "setting": "SW 1573; first compound 2.53 µM", "result": 1.04},
      {"measurement": "relative viability", "setting": "SW 1573; first compound 8 µM", "result": 0.792},
      {"measurement": "relative viability", "setting": "SK-LU-1; first compound 0.08 µM", "result": 0.795},
      {"measurement": "relative viability", "setting": "SK-LU-1; first compound 0.253 µM", "result": 0.91},
      {"measurement": "relative viability", "setting": "SK-LU-1; first compound 0.8 µM", "result": 0.843},
      {"measurement": "relative viability", "setting": "SK-LU-1; first compound 2.53 µM", "result": 0.795},
      {"measurement": "relative viability", "setting": "SK-LU-1; first compound 8 µM", "result": 0.577},
      {"measurement": "relative viability", "setting": "NCI-H322M; first compound 0.08 µM", "result": 0.597},
      {"measurement": "relative viability", "setting": "NCI-H322M; first compound 0.253 µM", "result": 0.744},
      {"measurement": "relative viability", "setting": "NCI-H322M; first compound 0.8 µM", "result": 0.59},
      {"measurement": "relative viability", "setting": "NCI-H322M; first compound 2.53 µM", "result": 0.568},
      {"measurement": "relative viability", "setting": "NCI-H322M; first compound 8 µM", "result": 0.629},
      {"measurement": "relative viability", "setting": "NCI-H647; first compound 0.08 µM", "result": 0.896},
      {"measurement": "relative viability", "setting": "NCI-H647; first compound 0.253 µM", "result": 1.38},
      {"measurement": "relative viability", "setting": "NCI-H647; first compound 2.53 µM", "result": 0.791},
      {"measurement": "relative viability", "setting": "NCI-H647; first compound 8 µM", "result": 0.584}
    ]}
  ]
}
